What was measured:
Assay in all cases: relative viability (nuclei count vs DMSO), 5 days (fraction); higher = more cells survive
[1] = compound: C1=CC2=C(C=CC(=C2)C=C3C(=O)NC(=NCC4=CC=CS4)S3)N=C1 [RO-3306] + COc1cc2c(Oc3ccc(NC(=O)C4(C(=O)Nc5ccc(F)cc5)CC4)cc3F)ccnc2cc1OCCCN1CCOCC1 [Foretinib] (partner 0.25 µM)
Procedure, shortened: (§1)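 Relative viability equals treated-well nuclei counts divided by vehicle-well nuclei counts. Counts came from 4× images of lung cancer cell lines grown in 1536-well plates for 5 days after pin-tool dosing on the day after seeding. Dosing used one drug alone or a fixed anchor-drug dose plus five library-drug doses (not always all listed) in √10 steps, and values are medians of duplicate plates.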

[2] = compound: C1=CC2=C(C=CC(=C2)C=C3C(=O)NC(=NCC4=CC=CS4)S3)N=C1 [RO-3306] + O=C(c1cc(Cc2n[nH]c(=O)c3ccccc23)ccc1F)N1CCN(C(=O)C2CC2)CC1 [Olaparib] (partner 8 µM)
Procedure, shortened: as §1

[3] = compound: O=S(=O)(c1ccccc1)N(CC(F)(F)F)c1ccc(C(O)(C(F)(F)F)C(F)(F)F)cc1 + Cc1cc(Nc2cc(N3CCN(C)CC3)nc(Sc3ccc(NC(=O)C4CC4)cc3)n2)n[nH]1 [Tozasertib] (partner 0.1 µM)
Procedure, shortened: as §1

[4] = compound: O=S(=O)(c1ccccc1)N(CC(F)(F)F)c1ccc(C(O)(C(F)(F)F)C(F)(F)F)cc1 + Cc1nc(NC(=O)N2CCC[C@H]2C(N)=O)sc1-c1ccnc(C(C)(C)C(F)(F)F)c1 [Alpelisib] (partner 2 µM)
Procedure, shortened: as §1

[5] = compound: O=S(=O)(c1ccccc1)N(CC(F)(F)F)c1ccc(C(O)(C(F)(F)F)C(F)(F)F)cc1 + O=C(c1cc(Cc2n[nH]c(=O)c3ccccc23)ccc1F)N1CCN(C(=O)C2CC2)CC1 [Olaparib] (partner 8 µM)
Procedure, shortened: as §1

Cell Line	relative viability ([1]; first compound 0.01 µM)	relative viability ([1]; first compound 0.03162 µM)	relative viability ([1]; first compound 0.1 µM)	relative viability ([1]; first compound 0.3162 µM)	relative viability ([1]; first compound 1 µM)	relative viability ([2]; first compound 0.01 µM)	relative viability ([2]; first compound 0.03162 µM)	relative viability ([2]; first compound 0.1 µM)	relative viability ([2]; first compound 0.3162 µM)	relative viability ([2]; first compound 1 µM)	relative viability ([3]; first compound 0.8 µM)	relative viability ([3]; first compound 2.53 µM)	relative viability ([3]; first compound 8 µM)	relative viability ([4]; first compound 0.8 µM)	relative viability ([4]; first compound 2.53 µM)	relative viability ([4]; first compound 8 µM)	relative viability ([5]; first compound 0.8 µM)	relative viability ([5]; first compound 2.53 µM)	relative viability ([5]; first compound 8 µM)
UMC-11	0.999	0.772	1.05	1.21	1.16	0.365	0.411	0.351	0.385	0.299	0.215	0.22	0.237	1.24	0.98	1.25	0.355	0.459	0.379
NCI-H596	0.716	0.797	0.818	0.872	0.77	0.675	0.669	0.616	0.672	0.569	0.907	0.761	0.75	0.423	0.419	0.421	0.634	0.681	0.651
NCI-H650	0.989	0.94	1.01	1.07	1.02	0.316	0.373	0.37	0.382	0.361	0.778	0.771	0.748	1.13	1.03	1	0.405	0.387	0.359
NCI-H2228	0.759	0.808	0.954	0.641	0.635	0.603	0.601	0.645	0.654	0.524	0.265	0.176	0.183	0.88	0.491	0.502	0.678	0.578	0.589
NCI-H661	1.01	1.07	0.981	0.985	0.999	0.751	0.754	0.741	0.755	0.818	0.333	0.34	0.361	0.752	0.681	1.02	0.774	0.779	0.768
EMC-BAC-2	0.977	0.892	0.976	1.03	1.05	0.472	0.459	0.468	0.481	0.448	0.293	0.284	0.28	0.874	0.754	0.757	0.471	0.47	0.483
NCI-H2085	0.866	0.766	0.78	1.11	0.94	0.699	0.685	0.811	0.714	0.757	0.809	0.727	0.688	0.982	0.885	0.969	0.745	0.686	0.742
RERF-LC-KJ	0.844	0.683	0.795	0.906	0.958	0.888	0.902	0.837	0.835	1.08	0.5	0.445	0.523	0.857	0.701	0.858	0.853	0.893	0.88

— the supplement of paper PMC10307832
